Experimental data reported in US20230365546A1, “5-SUBSTITUTED INDOLE 3-AMIDE DERIVATIVES, PREPARATION METHOD AND USE THEREOF” (ORIGIANT PHARMACEUTICAL CO., LTD, priority 2020, published 2023).

Key:
RIPK1 = RIPK1 (Homo sapiens (Human), UniProt Q13546); test: In vitro kinase assay (Eurofins Kinase Profiler), IC50; type: biochemical; conditions: 0.001-10 μM, read-out: RIPK 1 (IC50)
HT-29 cells = test: Protection against programmed necrosis of HT-29 cells (TNF α/Smac mimetic/Z-VAD-FMK, CCK8); type: cell-based; conditions: Homo sapiens, TNF α/Smac mimetic/Z-VAD-FMK induced 24 h, CCK8, read-out: HT-29 (EC50)
[1] = In vivo pharmacokinetic study in rats; conditions: rat, plasma, oral, 10 mg/kg
Procedure: Blood was collected from rats at different times after administration at the following time points: 0.083 h, 0.25 h, 0.5 h, 1 h, 2 h, 4 h, 8 h, and 24 h after intravenous administration; 0.25 h, 0.5 h, 1 h, 2 h, 4 h, 6 h, 8 h, and 24 h after oral administration. About 0.20 mL of blood was collected via jugular vein or other suitable means for each sample at the corresponding time, with heparin sodium for anticoagulation; the blood sample was placed on ice after collection and centrifuged within 1 h to separate the plasma (centrifugation conditions: centrifugal force 6800 g, 6 min, 2-8° C.). The collected plasma samples were stored in a refrigerator at −80° C. before analysis, and the remaining plasma samples continued to be temporarily stored in the refrigerator at −80° C. for one month after analysis.
Pharmacokinetic parameters such as AUC (0-t), T1/2, Cmax, Tmax, and MRT were calculated using WinNonlin based on plasma concentration data at different time points. The plasma drug concentration-time curve was plotted with BLQ recorded as 0. For the calculation of pharmacokinetic parameters, the concentration before administration was calculated as 0; BLQ before Cmax (including “No peak”) was calculated as 0; no BLQ (including “No peak”) appeared after Cmax participated in the calculation. The experiment was completed by Shanghai Medicilon Inc.

Sequence of RIPK1 (Q13546 whole entry): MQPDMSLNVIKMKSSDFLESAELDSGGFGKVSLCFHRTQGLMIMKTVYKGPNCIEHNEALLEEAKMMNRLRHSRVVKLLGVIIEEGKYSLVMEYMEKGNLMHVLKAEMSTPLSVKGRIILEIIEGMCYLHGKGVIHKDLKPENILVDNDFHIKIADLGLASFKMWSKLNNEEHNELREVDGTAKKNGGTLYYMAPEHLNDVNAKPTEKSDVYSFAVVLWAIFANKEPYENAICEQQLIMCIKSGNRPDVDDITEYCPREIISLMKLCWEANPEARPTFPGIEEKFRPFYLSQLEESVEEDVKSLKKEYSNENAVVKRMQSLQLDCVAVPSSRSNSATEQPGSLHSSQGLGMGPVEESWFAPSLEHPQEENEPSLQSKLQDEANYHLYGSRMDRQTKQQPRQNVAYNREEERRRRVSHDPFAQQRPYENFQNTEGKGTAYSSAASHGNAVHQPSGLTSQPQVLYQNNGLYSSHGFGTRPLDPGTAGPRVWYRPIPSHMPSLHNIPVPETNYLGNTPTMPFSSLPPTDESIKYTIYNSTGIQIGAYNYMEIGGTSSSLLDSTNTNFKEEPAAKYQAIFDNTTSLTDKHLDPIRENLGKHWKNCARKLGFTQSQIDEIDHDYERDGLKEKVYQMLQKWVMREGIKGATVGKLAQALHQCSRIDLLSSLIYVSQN

SMILES | IC50 (RIPK1) | EC50 (HT-29 cells) | AUC(0-t) [1] | Cmax [1] | Tmax [1] | bioavailability [1] | half-life [1]
Cn1cc(C(=O)N2CCCC2c2cccc(F)c2)c2cc(-c3ccn4nc(NC(=O)C5CC5)nc4c3)ccc21 (centres unmarked) [Compound 168] | 10 to 100 nM | < 1 nM | 15300 ng·h/mL | 6360 ng/mL | 0.33 h | 60.9% | 3.1 h
Cn1cc(C(=O)N2CCC[C@H]2c2ccc(F)cc2)c2cc(-c3ccn4nc(NC(=O)C5CC5)nc4c3)ccc21 [Compound 174] | 1 to 10 nM | < 1 nM | 11500 ng·h/mL | 3840 ng/mL | 0.42 h | 35% | 1.99 h
C[C@H](NC(=O)c1cn(C)c2ccc(-c3ccn4nc(NC(=O)N5CCNCC5)nc4c3)cc12)c1cccc(F)c1 [Compound 178] | 1 to 10 nM | 1 to 10 nM |  |  |  |  | 
C[C@H](NC(=O)c1cn(C)c2ccc(-c3ccn4nc(NC(=O)[C@H]5CCCN5)nc4c3)cc12)c1cccc(F)c1 [Compound 179] | < 1 nM | < 1 nM |  |  |  |  | 
C[C@H](NC(=O)c1cn(C)c2ccc(-c3ccn4nc(NC(=O)[C@@H]5CCCN5)nc4c3)cc12)c1cccc(F)c1 [Compound 180] | 1 to 10 nM | < 1 nM |  |  |  |  | 
COc1ccc([C@H](C)NC(=O)c2cn(C)c3ccc(-c4ccn5nc(NC(=O)C6CC6)nc5c4)cc23)cc1F [Compound 181] | 100 to 1000 nM | 100 to 1000 nM |  |  |  |  | 
C[C@H](NC(=O)c1cn(C)c2ccc(-c3ccn4nc(NC(=O)C5CC5)nc4c3)cc12)c1ccc(F)c(F)c1 [Compound 182] | 1 to 10 nM | < 1 nM |  |  |  |  | 
Cn1cc(C(=O)N[C@H]2CCc3ccc(F)cc32)c2cc(-c3ccn4nc(NC(=O)C5CC5)nc4c3)ccc21 [Compound 183] | 100 to 1000 nM | 100 to 1000 nM |  |  |  |  | 
Cn1cc(C(=O)N[C@H]2CCCc3ccc(F)cc32)c2cc(-c3ccn4nc(NC(=O)C5CC5)nc4c3)ccc21 [Compound 184] | 100 to 1000 nM | 100 to 1000 nM |  |  |  |  | 
Cn1cc(C(=O)N2CCCC2c2cccc(F)c2)c2cc(-c3ccn4nc(NC(=O)C5CC5)cc4n3)ccc21 (centres unmarked) [Compound 185] | 1 to 10 nM | < 1 nM |  |  |  |  | 
C[C@H](NC(=O)c1cn(C)c2ncc(-c3ccn4nc(NC(=O)C5CC5)nc4c3)cc12)c1cccc(F)c1 [Compound 186] | 100 to 1000 nM | 100 to 1000 nM |  |  |  |  | 
Cn1cc(C(=O)N2CCCC2c2cccc(F)c2)c2cc(-c3ccc4nc(NC(=O)C5CC5)cn4n3)ccc21 (centres unmarked) [Compound 187] | < 1 nM | < 1 nM |  |  |  |  | 
Cn1cc(C(=O)N[C@H]2CCCc3ccccc32)c2cc(-c3ccc4nc(NC(=O)C5CC5)cn4n3)ccc21 [Compound 188] | 100 to 1000 nM | 100 to 1000 nM |  |  |  |  | 
Cc1cccc(C2CCCN2C(=O)c2cn(C)c3ccc(-c4ccn5nc(NC(=O)C6CC6)nc5c4)cc23)c1 (centres unmarked) [Compound 189] | 100 to 1000 nM | 100 to 1000 nM |  |  |  |  | 
Cn1cc(C(=O)N2CCCC2c2cc(F)ccc2F)c2cc(-c3ccn4nc(NC(=O)C5CC5)nc4c3)ccc21 (centres unmarked) [Compound 190] | 1 to 10 nM | 1 to 10 nM |  |  |  |  | 
Cn1cc(C(=O)N2CCC[C@H]2c2ccc(F)c(F)c2)c2cc(-c3ccn4nc(NC(=O)C5CC5)nc4c3)ccc21 [Compound 191] | < 1 nM | < 1 nM | 4560 ng·h/mL | 2130 ng/mL | 0.33 h | 20.4% | 4.67 h
Cn1cc(C(=O)N2CCC[C@H]2c2cc(F)cc(F)c2)c2cc(-c3ccn4nc(NC(=O)C5CC5)nc4c3)ccc21 [Compound 192] | < 1 nM | < 1 nM |  |  |  |  | 
Cn1cc(C(=O)N2CCC[C@H]2c2cccc(Cl)c2)c2cc(-c3ccn4nc(NC(=O)C5CC5)nc4c3)ccc21 [Compound 193] | 10 to 100 nM | 10 to 100 nM | 14800 ng·h/mL | 2880 ng/mL | 2.25 h | 31.7% | 2.74 h
Cn1cc(C(=O)N2CCC[C@H]2c2ccc(Cl)cc2)c2cc(-c3ccn4nc(NC(=O)C5CC5)nc4c3)ccc21 [Compound 194] | < 1 nM | < 1 nM |  |  |  |  | 
CNC(=O)Nc1nc2cc(-c3ccc4c(c3)c(C(=O)N[C@@H](C)c3cccc(F)c3)cn4C)ccn2n1 [Compound 195] | < 1 nM | < 1 nM |  |  |  |  | 

SMILES | IC50 (RIPK1) | EC50 (HT-29 cells) | AUC(0-t) [1] | Cmax [1] | Tmax [1] | bioavailability [1] | half-life [1]
C[C@H](NC(=O)c1cn(C)c2ccc(-c3ccn4nc(N[C@@H](C)CO)nc4c3)cc12)c1cccc(F)c1 [Compound 196] | 10 to 100 nM | < 1 nM |  |  |  |  | 
CCn1cc(C(=O)N2CCC[C@H]2c2ccc(F)cc2)c2cc(-c3ccn4nc(NC(=O)C5CC5)nc4c3)cnc21 [Compound 197] | 1 to 10 nM | < 1 nM |  |  |  |  | 
CCn1cc(C(=O)N2CCC[C@H]2c2ccc(F)cc2)c2cc(-c3ccn4nc(NC(=O)[C@H](C)OC(C)=O)nc4c3)ccc21 [Compound 198] | 10 to 100 nM | 1 to 10 nM |  |  |  |  | 
CC[C@H](NC(=O)c1cn(CC)c2ccc(-c3ccn4nc(NC(=O)C5CC5)nc4c3)cc12)c1ccc(F)cc1 [Compound 199] | 1 to 10 nM | < 1 nM |  |  |  |  | 
CCn1cc(C(=O)N[C@H](c2ccc(F)cc2)C2CC2)c2cc(-c3ccn4nc(NC(=O)C5CC5)nc4c3)ccc21 [Compound 200] | 10 to 100 nM | < 1 nM |  |  |  |  | 
CCn1cc(C(=O)N2CCC[C@H]2c2ccc(F)cc2)c2cc(-c3ccn4nc(NC(=O)CN(C)C)nc4c3)ccc21 [Compound 201] | 10 to 100 nM | 1 to 10 nM |  |  |  |  | 
Cn1cc(C(=O)N2C(CO)CC[C@H]2c2ccc(F)cc2)c2cc(-c3ccn4nc(NC(=O)C5CC5)nc4c3)ccc21 (some centres unmarked) [Compound 202] | ≥ 1000 nM | 10 to 100 nM |  |  |  |  | 
Cn1cc(C(=O)N[C@@H](CO)c2ccc(F)cc2)c2cc(-c3ccn4nc(NC(=O)C5CC5)nc4c3)ccc21 [Compound 203] | 10 to 100 nM | < 1 nM |  |  |  |  | 
CCn1cc(C(=O)N2CCC[C@H]2c2ccc(F)cc2)c2cc(-c3ccn4nc(NC(=O)[C@@H](C)O)nc4c3)ccc21 [Compound 204] | 10 to 100 nM | < 1 nM |  |  |  |  | 
CCn1cc(C(=O)N2CCC[C@H]2c2ccc(F)cc2)c2cc(-c3ccn4nc(NC(=O)[C@H](C)O)nc4c3)ccc21 [Compound 205] | 10 to 100 nM | < 1 nM |  |  |  |  | 
[2H]C([2H])([2H])n1cc(C(=O)N[C@H](c2ccc(F)cc2)C2CC2)c2cc(-c3ccn4nc(NC(=O)C5CC5)nc4c3)ccc21 [Compound 206] | 1 to 10 nM | < 1 nM |  |  |  |  | 
[2H]C([2H])([2H])n1cc(C(=O)N[C@H](c2ccc(F)cc2)C2CC2)c2cc(-c3ccn4nc(NC(=O)CN(C)C)nc4c3)ccc21 [Compound 207] | 100 to 1000 nM | 1 to 10 nM |  |  |  |  | 
[2H]C([2H])([2H])n1cc(C(=O)N[C@@H](CC)c2ccc(F)cc2)c2cc(-c3ccn4nc(NC(=O)C5CC5)nc4c3)ccc21 [Compound 208] | 10 to 100 nM | < 1 nM |  |  |  |  | 
CCN(CC)CC(=O)Nc1nc2cc(-c3ccc4c(c3)c(C(=O)N3CCC[C@H]3c3ccc(F)cc3)cn4C)ccn2n1 [Compound 209] | 1 to 10 nM | < 1 nM |  |  |  |  | 
CCn1cc(C(=O)N[C@H](c2ccc(F)cc2)C2CC2)c2cc(-c3ccn4nc(NC(=O)CN(C)C)nc4c3)ccc21 [Compound 210] | 10 to 100 nM | < 1 nM |  |  |  |  | 
CC[C@H](NC(=O)c1cn(CC)c2ccc(-c3ccn4nc(NC(=O)CN(C)C)nc4c3)cc12)c1ccc(F)cc1 [Compound 211] | 1 to 10 nM | < 1 nM |  |  |  |  | 
CCn1cc(C(=O)N[C@@H](CF)c2ccc(F)cc2)c2cc(-c3ccn4nc(NC(=O)C5CC5)nc4c3)ccc21 [Compound 212] | 1 to 10 nM | < 1 nM |  |  |  |  | 
C[C@H]1CC[C@@H](c2ccc(F)cc2)N1C(=O)c1cn(C)c2ccc(-c3ccn4nc(NC(=O)C5CC5)nc4c3)cc12 [Compound 213] | 1 to 10 nM | < 1 nM |  |  |  |  | 
CCn1cc(C(=O)N[C@H](c2ccc(F)cc2)C2CC2)c2cc(-c3ccn4nc(NC5CC5)nc4c3)ccc21 [Compound 214] | ≥ 1000 nM | ≥ 1000 nM |  |  |  |  | 
